{"source": "paper PMC3414753", "about": "“Oleamide activates peroxisome proliferator-activated receptor gamma (PPARγ) in vitro” (2012)", "key": {"PPARβ": {"biological_target": "T1, PPARβ (Homo sapiens, UniProt Q03181)", "T1 construct": "gene PPARD", "T1 sequence (Q03181 171-441 limits assumed)": "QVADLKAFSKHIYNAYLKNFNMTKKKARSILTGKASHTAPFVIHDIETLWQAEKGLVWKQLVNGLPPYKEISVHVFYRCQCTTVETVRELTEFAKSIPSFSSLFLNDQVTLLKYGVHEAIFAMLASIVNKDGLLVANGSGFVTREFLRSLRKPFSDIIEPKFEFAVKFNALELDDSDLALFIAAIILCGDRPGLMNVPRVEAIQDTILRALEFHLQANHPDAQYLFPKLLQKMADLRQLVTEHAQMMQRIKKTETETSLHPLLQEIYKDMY", "experiment": "LanthaScreen TR-FRET competitive binding assay; displacement incomplete at […]"}, "PPARγ": {"biological_target": "T2, PPARγ (Homo sapiens, UniProt P37231)", "T2 construct": "gene PPARG", "T2 sequence (P37231 232-505 limits assumed)": "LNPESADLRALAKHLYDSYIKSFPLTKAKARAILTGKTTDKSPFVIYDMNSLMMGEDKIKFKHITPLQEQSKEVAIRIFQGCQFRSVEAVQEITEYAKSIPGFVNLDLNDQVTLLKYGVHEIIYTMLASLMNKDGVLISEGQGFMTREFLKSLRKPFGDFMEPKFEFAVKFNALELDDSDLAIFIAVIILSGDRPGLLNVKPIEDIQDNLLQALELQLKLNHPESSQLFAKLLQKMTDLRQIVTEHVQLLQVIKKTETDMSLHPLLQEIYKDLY", "experiment": "biochemical", "format": "binding"}, "PPARα": {"biological_target": "T3, PPARα (Homo sapiens, UniProt Q07869)", "T3 construct": "gene PPARA", "T3 sequence (Q07869 196-468 limits assumed)": "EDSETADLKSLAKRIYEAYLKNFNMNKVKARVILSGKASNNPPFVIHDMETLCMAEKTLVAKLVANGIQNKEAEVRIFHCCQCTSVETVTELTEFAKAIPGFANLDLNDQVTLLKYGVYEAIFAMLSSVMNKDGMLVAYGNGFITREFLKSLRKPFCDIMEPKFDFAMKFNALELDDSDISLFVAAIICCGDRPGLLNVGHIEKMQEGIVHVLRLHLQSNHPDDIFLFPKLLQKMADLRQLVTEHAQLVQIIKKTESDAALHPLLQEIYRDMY", "experiment": "LanthaScreen TR-FRET competitive binding assay; displacement incomplete at […]"}}, "note": "pIC50: −log10 of the molar value."}
{"smiles": "CCCCCCCC/C=C\\CCCCCCCC(N)=O", "note": "[ODA, (Z)-octadec-9-enamide]", "values": [{"measurement": "LanthaScreen TR-FRET competitive binding assay; displacement incomplete at 100 μ", "setting": "PPARβ", "result": "ODA evoked concentration-dependent displacement of fluorescent ligand from each receptor binding site, displacement at PPARα and PPARβ was incomplete"}, {"measurement": "pIC50", "setting": "PPARγ", "result": "~4.42"}, {"measurement": "LanthaScreen TR-FRET competitive binding assay; displacement incomplete at 100 μ", "setting": "PPARα", "result": "ODA evoked concentration-dependent displacement of fluorescent ligand from each receptor binding site, displacement at PPARα and PPARβ was incomplete"}]}
